pIC50: −log10 of the molar value.

Format in all cases: cell-based
Data set [1] has as its system BKV(Dunlop). Nature of the data set: Intracellular BKV load per cell in RPTECs (qPCR). The conditions noted are these: CMX001 0.31 μM. How it is done: FIG. 3 illustrates the influence of CMX001 0.31 μM on BKV genome replication. For Figure, CMX001-treated and untreated BKV-infected RPTECs were harvested at indicated timepoints and intracellular BKV DNA load per cell was measured by qPCR.
To investigate whether the BKV genome replication was affected by CMX001, intracellular BKV load at 24-72 h p.i. by qPCR was measured. The intracellular BKV load was normalized to the cell number using the aspartoacylase (ACY) gene as described (See Bernhoff et al., 2008; Randhawa, et al., Quantitation of DNA of polyomaviruses BK and JC in human kidneys. J Infect Dis., 192, 504-509 (2005)). Compared to untreated RPTECs, CMX001 0.31 μM reduced the intracellular BKV load by 94% at 48 h and 63% at 72 h p.i. (FIG. 3). Then, a significant inhibitory effect of CMX001 on intracellular BKV genome replication, which is the second step of the BKV lifecycle may be identified. This step is known to require LTag expression which also increases viral late gene expression by two mechanisms: 1. increasing the DNA templates for late gene transcription and 2. by activating transcription from the late promoter (Cole, C. N., Polyomavirinae: The Viruses and Their Replication. In Fields Virology, Third edn, pp. 1997-2043. Edited by B. N. Fields, D. M. Knipe & P. H. Howley. New York: Lippincott-Raven (1996).)
For orientation: Quantitative PCR measures a nucleic acid by following its amplification.

The test system of data set [2] is COS-7. Nature of the data set: Inspection of COS-7 by phase contrast microscopy. The conditions noted are these: 7 day exposure to CMX001 0.6 μM.
Data set [3] deals with JCV Mad-4. Nature of the data set: JCV VP1 late gene expression in COS-7 cells (immunofluorescence). The conditions noted are these: 7 d.p.i. From the text: FIG. 16 illustrates the effect of increasing concentrations of CMX001 on expression of JCV proteins. Indirect immunofluorescence of JCV-infected COS-7 cells treated with indicated concentrations of CMX001, fixed 7 d.p.i. and stained with rabbit anti-VP1 serum (red) for visualization of the late capsid protein VP1 and with Höchst 33342 dye to show DNA (blue). The merged pictures are shown in the right panel.
Cells were fixed with 4% p-formaldehyde (PFA) in phosphate-buffered saline, pH6.8 (PBS) at room temperature for 20 min and permeabilized with 0.2% Triton X-100 in PBS at room temperature for 10 min. After washing twice with PBS at room temperature for 5 min, PFA was quenched with 0.5 M NH4Cl in PBS at room temperature for 7 min followed washing twice with PBS at room temperature for 5 min. Blocking of unspecific binding sites was done with 3% milk in PBS at 37° C. for 15 min. Primary antibody (rabbit anti-VP1 1:300 in 3% milk PBS) was incubated at 37° C. for 45-60 min. Cells were washed twice with PBS on a shaker at room temperature for 5 min. Secondary antibody (chicken anti-rabbit Cy3 1:2000) and 5 μg/ml Höchst 33342 dye to stain DNA was given to the cells then incubated at 37° C. for 45-60 min. Cells were washed twice with PBS as before. Coverslips were mounted in NPropylgallat. […]

Data set [4] relates to tumor cell lines. The experiment in a line: Cell proliferation assay (MTS or SRB), panel of human tumor cell lines. The settings on record: 22 tumor cell lines, read-out: IC50 values in the tumor cell lines (range over panel). How it is done:
The cell growth inhibitory activities of CMX001, Cidofovir, and a standard agent (varies depending on the tumor type of the cell lines) were evaluated in a panel of cell lines derived from multiple tumor types using a MTS or SRB based cell proliferation assay.
In vitro cell proliferation assays were performed using a 96-well plate based MTSassay (CellTiter 96° AqueousOne Solution Cell Proliferation Assay, Promega) or SRB (Sulforhodamine-B) assay (1-3). Briefly, cells were plated in 100 μl medium on day 0 in 96-well microtiter plates (Falcon #3072). […]
After incubation for 3 days at 37° C. in a humidified incubator, viable cells were measured either by MTS or SRB assay. For MTS assay, 20 μl of a 20:1 mixture of (3-(4,5-dimethylthiazol-2-yl)-5-(3-carboxymethoxyphenyl)-2-(4-sulfophenyl)-2H-tetrazolium, inner salt (MTS, 2 mg/ml) and an electron coupling reagent, phenazine methosulfate (PMS, 0.92 mg/ml in DPBS), was added to each well and incubated for 3 hours at 37° C. Absorbance was measured using a BioTek Synergy™ HT Multiple Detection microplate reader at 490 nm. For SRB assay, cells were fixed in situ with 50 μL of cold trichloroacetic acid (TCA, final concentration at 10% w/v) for 60 minutes. Cells were then washed 5 times with H2O and air-dried. […]
Raw data were acquired using a BioTek Synergy™ HT Multiple Detection microplate reader and imported into Microsoft Excel for analysis. […]

For orientation: pIC50 means −log10 of the IC50, conventionally taken in molar units. With `CCCCCCCCCCCCCCCCOCCCOP(=O)(O)CO[C@H](CO)Cn1ccc(N)nc1=O` [CMX001], the “reduction of intracellular BKV load” value in data set [1] (48 h p.i.) came out at 94%; in data set [1] (72 h p.i.), 63%. Further, the “signs of impaired viability” value in data set [2] is “did not reveal any signs of impaired viability”. Further, the “JCV VP1 signal by immunofluorescence” value in data set [3] (CMX001 1.25 μM) is on record as “significant reduction”. Also, the “JCV VP1 positive cells by immunofluorescence” value in data set [3] (CMX001 5 μM) is reported as “essentially no VP1 positive cells could be observed”. Further, in data set [4], the pIC50 was 4.00 to 5.18.
